Experimental data from patent US20110071108A1, “Beta-Cyclodextrin Derivatives as Antibacterial Agents” (Pinnacle Pharmaceuticals, Inc., priority 2005, published 2011).

Key:
Experiment in all cases: Bacterial panel testing, MIC by broth microdilution
Assay type in all cases: cell-based
Conditions in all cases: 20-24 hours growth
Bacillus atrophaeus = test system: Bacillus atrophaeus
Method in brief: (§1)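 Read-out: clear (no-growth) wells scored after 20-24 h growth to define compound potency. Inoculum was McFarland-matched bacteria from 2-4 h cultures at 37° C in strain-appropriate Mueller-Hinton or Brain Heart infusion media. Compound (10 μg/ml DMSO stock) was serially diluted twofold across plate columns.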

Enterococcus faecium = test system: Enterococcus faecium
Method in brief: as §1

Eschericia coli = test system: Eschericia coli
Method in brief: as §1

Pseudomonas aeruginosa = test system: Pseudomonas aeruginosa
Method in brief: as §1

Salmonella choleraesuis = test system: Salmonella choleraesuis
Method in brief: as §1

Staphylococcus aureus = test system: Staphylococcus aureus
Method in brief: as §1

CSCCC(N)C(=O)NCC1OC2OC3C(CNC(=O)C(N)CCSC)OC(OC4C(CNC(=O)C(N)CCSC)OC(OC5C(CNC(=O)C(N)CCSC)OC(OC6C(CNC(=O)C(N)CCSC)OC(OC7C(CNC(=O)C(N)CCSC)OC(OC8C(CNC(=O)C(N)CCSC)OC(OC1C(O)C2O)C(O)C8O)C(O)C7O)C(O)C6O)C(O)C5O)C(O)C4O)C(O)C3O.Cl.Cl.Cl.Cl.Cl.Cl.Cl (stereo not drawn)
>200 µg/mL: MIC BA (Bacillus atrophaeus) | MIC EF (Enterococcus faecium) | MIC EC (Eschericia coli) | MIC PA (Pseudomonas aeruginosa) | MIC SC (Salmonella choleraesuis) | MIC SA (Staphylococcus aureus)

O=C(Cn1ccnc1)NCC1OC2OC3C(CNC(=O)Cn4ccnc4)OC(OC4C(CNC(=O)Cn5ccnc5)OC(OC5C(CNC(=O)Cn6ccnc6)OC(OC6C(CNC(=O)Cn7ccnc7)OC(OC7C(CNC(=O)Cn8ccnc8)OC(OC8C(CNC(=O)Cn9ccnc9)OC(OC1C(O)C2O)C(O)C8O)C(O)C7O)C(O)C6O)C(O)C5O)C(O)C4O)C(O)C3O (stereo not drawn)
>200 µg/mL: MIC BA (Bacillus atrophaeus) | MIC EF (Enterococcus faecium) | MIC EC (Eschericia coli) | MIC PA (Pseudomonas aeruginosa) | MIC SC (Salmonella choleraesuis) | MIC SA (Staphylococcus aureus)

OCC1OC(OCc2cn(CC3OC4OC5C(Cn6cc(COC7OC(CO)C(O)C(O)C7O)nn6)OC(OC6C(Cn7cc(COC8OC(CO)C(O)C(O)C8O)nn7)OC(OC7C(Cn8cc(COC9OC(CO)C(O)C(O)C9O)nn8)OC(OC8C(Cn9cc(COC%10OC(CO)C(O)C(O)C%10O)nn9)OC(OC9C(Cn%10cc(COC%11OC(CO)C(O)C(O)C%11O)nn%10)OC(OC%10C(Cn%11cc(COC%12OC(CO)C(O)C(O)C%12O)nn%11)OC(OC3C(O)C4O)C(O)C%10O)C(O)C9O)C(O)C8O)C(O)C7O)C(O)C6O)C(O)C5O)nn2)C(O)C(O)C1O (stereo not drawn)
>200 µg/mL: MIC BA (Bacillus atrophaeus) | MIC EF (Enterococcus faecium) | MIC EC (Eschericia coli) | MIC PA (Pseudomonas aeruginosa) | MIC SC (Salmonella choleraesuis) | MIC SA (Staphylococcus aureus)

CN(C)CCNCC(=O)NCC1OC2OC3C(CNC(=O)CNCCN(C)C)OC(OC4C(CNC(=O)CNCCN(C)C)OC(OC5C(CNC(=O)CNCCN(C)C)OC(OC6C(CNC(=O)CNCCN(C)C)OC(OC7C(CNC(=O)CNCCN(C)C)OC(OC8C(CNC(=O)CNCCN(C)C)OC(OC1C(O)C2O)C(O)C8O)C(O)C7O)C(O)C6O)C(O)C5O)C(O)C4O)C(O)C3O.Cl.Cl.Cl.Cl.Cl.Cl.Cl (stereo not drawn)
>200 µg/mL: MIC BA (Bacillus atrophaeus) | MIC EF (Enterococcus faecium) | MIC EC (Eschericia coli) | MIC SC (Salmonella choleraesuis) | MIC SA (Staphylococcus aureus)

Cl.Cl.Cl.Cl.Cl.Cl.Cl.O=C(CN1CCOCC1)NCC1OC2OC3C(CNC(=O)CN4CCOCC4)OC(OC4C(CNC(=O)CN5CCOCC5)OC(OC5C(CNC(=O)CN6CCOCC6)OC(OC6C(CNC(=O)CN7CCOCC7)OC(OC7C(CNC(=O)CN8CCOCC8)OC(OC8C(CNC(=O)CN9CCOCC9)OC(OC1C(O)C2O)C(O)C8O)C(O)C7O)C(O)C6O)C(O)C5O)C(O)C4O)C(O)C3O (stereo not drawn)
>200 µg/mL: MIC BA (Bacillus atrophaeus) | MIC EF (Enterococcus faecium) | MIC EC (Eschericia coli) | MIC PA (Pseudomonas aeruginosa) | MIC SC (Salmonella choleraesuis) | MIC SA (Staphylococcus aureus)

CC(C)(C)OC(=O)NCCCC[C@H](N)C(=O)NCC1OC2OC3C(CNC(=O)[C@@H](N)CCCCNC(=O)OC(C)(C)C)OC(OC4C(CNC(=O)[C@@H](N)CCCCNC(=O)OC(C)(C)C)OC(OC5C(CNC(=O)[C@@H](N)CCCCNC(=O)OC(C)(C)C)OC(OC6C(CNC(=O)[C@@H](N)CCCCNC(=O)OC(C)(C)C)OC(OC7C(CNC(=O)[C@@H](N)CCCCNC(=O)OC(C)(C)C)OC(OC8C(CNC(=O)[C@@H](N)CCCCNC(=O)OC(C)(C)C)OC(OC1C(O)C2O)C(O)C8O)C(O)C7O)C(O)C6O)C(O)C5O)C(O)C4O)C(O)C3O (stereo partly drawn)
>200 µg/mL: MIC BA (Bacillus atrophaeus) | MIC EF (Enterococcus faecium) | MIC EC (Eschericia coli) | MIC PA (Pseudomonas aeruginosa) | MIC SC (Salmonella choleraesuis) | MIC SA (Staphylococcus aureus)

Cl.Cl.Cl.Cl.Cl.Cl.Cl.Cl.Cl.Cl.Cl.Cl.Cl.Cl.Cl.Cl.Cl.Cl.Cl.Cl.Cl.NCCCCC(N)C(=O)NC(CCCCN)C(=O)NCC1OC2OC3C(CNC(=O)C(CCCCN)NC(=O)C(N)CCCCN)OC(OC4C(CNC(=O)C(CCCCN)NC(=O)C(N)CCCCN)OC(OC5C(CNC(=O)C(CCCCN)NC(=O)C(N)CCCCN)OC(OC6C(CNC(=O)C(CCCCN)NC(=O)C(N)CCCCN)OC(OC7C(CNC(=O)C(CCCCN)NC(=O)C(N)CCCCN)OC(OC8C(CNC(=O)C(CCCCN)NC(=O)C(N)CCCCN)OC(OC1C(O)C2O)C(O)C8O)C(O)C7O)C(O)C6O)C(O)C5O)C(O)C4O)C(O)C3O (stereo not drawn)
>200 µg/mL: MIC BA (Bacillus atrophaeus) | MIC EF (Enterococcus faecium) | MIC EC (Eschericia coli) | MIC PA (Pseudomonas aeruginosa) | MIC SC (Salmonella choleraesuis) | MIC SA (Staphylococcus aureus)

Cl.Cl.Cl.Cl.Cl.Cl.Cl.O=C(NCC1OC2OC3C(CNC(=O)C4CC(O)CN4)OC(OC4C(CNC(=O)C5CC(O)CN5)OC(OC5C(CNC(=O)C6CC(O)CN6)OC(OC6C(CNC(=O)C7CC(O)CN7)OC(OC7C(CNC(=O)C8CC(O)CN8)OC(OC8C(CNC(=O)C9CC(O)CN9)OC(OC1C(O)C2O)C(O)C8O)C(O)C7O)C(O)C6O)C(O)C5O)C(O)C4O)C(O)C3O)C1CC(O)CN1 (stereo not drawn)
>200 µg/mL: MIC BA (Bacillus atrophaeus) | MIC EF (Enterococcus faecium) | MIC EC (Eschericia coli) | MIC PA (Pseudomonas aeruginosa) | MIC SC (Salmonella choleraesuis) | MIC SA (Staphylococcus aureus)

O[C@@H]1[C@@H](O)[C@H]2O[C@H]3[C@H](O)[C@@H](O)[C@@H](O[C@H]4[C@H](O)[C@@H](O)[C@@H](O[C@H]5[C@H](O)[C@@H](O)[C@@H](O[C@H]6[C@H](O)[C@@H](O)[C@@H](O[C@H]7[C@H](O)[C@@H](O)[C@@H](O[C@H]8[C@H](O)[C@@H](O)[C@@H](O[C@@H]1[C@@H](Cn1ccnc1)O2)O[C@@H]8Cn1ccnc1)O[C@@H]7Cn1ccnc1)O[C@@H]6Cn1ccnc1)O[C@@H]5Cn1ccnc1)O[C@@H]4Cn1ccnc1)O[C@@H]3Cn1ccnc1
>200 µg/mL: MIC BA (Bacillus atrophaeus) | MIC EF (Enterococcus faecium) | MIC EC (Eschericia coli) | MIC PA (Pseudomonas aeruginosa) | MIC SC (Salmonella choleraesuis) | MIC SA (Staphylococcus aureus)

OCCCNC[C@H]1O[C@@H]2O[C@H]3[C@H](O)[C@@H](O)[C@@H](O[C@H]4[C@H](O)[C@@H](O)[C@@H](O[C@H]5[C@H](O)[C@@H](O)[C@@H](O[C@H]6[C@H](O)[C@@H](O)[C@@H](O[C@H]7[C@H](O)[C@@H](O)[C@@H](O[C@H]8[C@H](O)[C@@H](O)[C@@H](O[C@H]1[C@H](O)[C@H]2O)O[C@@H]8CNCCCO)O[C@@H]7CNCCCO)O[C@@H]6CNCCCO)O[C@@H]5CNCCCO)O[C@@H]4CNCCCO)O[C@@H]3CNCCCO
>200 µg/mL: MIC BA (Bacillus atrophaeus) | MIC EF (Enterococcus faecium) | MIC EC (Eschericia coli) | MIC PA (Pseudomonas aeruginosa) | MIC SC (Salmonella choleraesuis) | MIC SA (Staphylococcus aureus)

CN(C)CCNC[C@H]1O[C@@H]2O[C@H]3[C@H](O)[C@@H](O)[C@@H](O[C@H]4[C@H](O)[C@@H](O)[C@@H](O[C@H]5[C@H](O)[C@@H](O)[C@@H](O[C@H]6[C@H](O)[C@@H](O)[C@@H](O[C@H]7[C@H](O)[C@@H](O)[C@@H](O[C@H]8[C@H](O)[C@@H](O)[C@@H](O[C@H]1[C@H](O)[C@H]2O)O[C@@H]8CNCCN(C)C)O[C@@H]7CNCCN(C)C)O[C@@H]6CNCCN(C)C)O[C@@H]5CNCCN(C)C)O[C@@H]4CNCCN(C)C)O[C@@H]3CNCCN(C)C
>200 µg/mL: MIC BA (Bacillus atrophaeus) | MIC EF (Enterococcus faecium) | MIC EC (Eschericia coli) | MIC PA (Pseudomonas aeruginosa) | MIC SC (Salmonella choleraesuis) | MIC SA (Staphylococcus aureus)

O[C@@H]1[C@@H](O)[C@H]2O[C@H]3[C@H](O)[C@@H](O)[C@@H](O[C@H]4[C@H](O)[C@@H](O)[C@@H](O[C@H]5[C@H](O)[C@@H](O)[C@@H](O[C@H]6[C@H](O)[C@@H](O)[C@@H](O[C@H]7[C@H](O)[C@@H](O)[C@@H](O[C@H]8[C@H](O)[C@@H](O)[C@@H](O[C@@H]1[C@@H](CN1CCOCC1)O2)O[C@@H]8CN1CCOCC1)O[C@@H]7CN1CCOCC1)O[C@@H]6CN1CCOCC1)O[C@@H]5CN1CCOCC1)O[C@@H]4CN1CCOCC1)O[C@@H]3CN1CCOCC1
>200 µg/mL: MIC BA (Bacillus atrophaeus) | MIC EF (Enterococcus faecium) | MIC EC (Eschericia coli) | MIC PA (Pseudomonas aeruginosa) | MIC SC (Salmonella choleraesuis) | MIC SA (Staphylococcus aureus)

Oc1ccc(NC[C@H]2O[C@@H]3O[C@H]4[C@H](O)[C@@H](O)[C@@H](O[C@H]5[C@H](O)[C@@H](O)[C@@H](O[C@H]6[C@H](O)[C@@H](O)[C@@H](O[C@H]7[C@H](O)[C@@H](O)[C@@H](O[C@H]8[C@H](O)[C@@H](O)[C@@H](O[C@H]9[C@H](O)[C@@H](O)[C@@H](O[C@H]2[C@H](O)[C@H]3O)O[C@@H]9CNc2ccc(O)cc2)O[C@@H]8CNc2ccc(O)cc2)O[C@@H]7CNc2ccc(O)cc2)O[C@@H]6CNc2ccc(O)cc2)O[C@@H]5CNc2ccc(O)cc2)O[C@@H]4CNc2ccc(O)cc2)cc1
>200 µg/mL: MIC BA (Bacillus atrophaeus) | MIC EF (Enterococcus faecium) | MIC EC (Eschericia coli) | MIC PA (Pseudomonas aeruginosa) | MIC SC (Salmonella choleraesuis) | MIC SA (Staphylococcus aureus)

CCCCCCCCCCCCNCC1OC2OC3C(CNCCCCCCCCCCCC)OC(OC4C(CNCCCCCCCCCCCC)OC(OC5C(CNCCCCCCCCCCCC)OC(OC6C(CNCCCCCCCCCCCC)OC(OC7C(CNCCCCCCCCCCCC)OC(OC8C(CNCCCCCCCCCCCC)OC(OC1C(O)C2O)C(O)C8O)C(O)C7O)C(O)C6O)C(O)C5O)C(O)C4O)C(O)C3O (stereo not drawn)
>200 µg/mL: MIC BA (Bacillus atrophaeus) | MIC EF (Enterococcus faecium) | MIC EC (Eschericia coli) | MIC PA (Pseudomonas aeruginosa) | MIC SC (Salmonella choleraesuis)

CCCCCCCCCCCCCCCCNCC1OC2OC3C(CNCCCCCCCCCCCCCCCC)OC(OC4C(CNCCCCCCCCCCCCCCCC)OC(OC5C(CNCCCCCCCCCCCCCCCC)OC(OC6C(CNCCCCCCCCCCCCCCCC)OC(OC7C(CNCCCCCCCCCCCCCCCC)OC(OC8C(CNCCCCCCCCCCCCCCCC)OC(OC1C(O)C2O)C(O)C8O)C(O)C7O)C(O)C6O)C(O)C5O)C(O)C4O)C(O)C3O (stereo not drawn)
>200 µg/mL: MIC BA (Bacillus atrophaeus) | MIC EF (Enterococcus faecium) | MIC EC (Eschericia coli) | MIC PA (Pseudomonas aeruginosa) | MIC SC (Salmonella choleraesuis)
